{"source": "patent US4254115A", "about": "“Phospholipid derivative with an antilipemic and antiarteriosclerotic effect” (A. Nattermann & Cie. GmbH, priority 1979, dated 1981)", "key": {"[1]": {"test_system": "triton-WR 1339 hyperlipemia (serum lipids)", "experiment": "Acute triton test (1 × prophylactic application) on rats", "type": "in vivo", "protocol": "(a) Prophylactic application\nThe n-oleyl derivative (i.e., n-oleyl cephalin) was orally administered to the test animals. […] Forty-eight hours after the triton application, serum was analyzed for lipids and compared with a control group."}, "[2]": {"test_system": "rat", "experiment": "Acute toxicity, rat", "type": "in vivo"}, "[3]": {"test_system": "triton-WR 1339 hyperlipemia (serum lipids)", "experiment": "Acute triton test (1 × therapeutic application) on rats", "type": "in vivo", "conditions": "for minimal effective dose: Rattus norvegicus, po, 48 h", "protocol": "(b) Therapeutic application\nOne hour later the n-oleyl cephalin was orally administered. Forty-eight hours after the triton is administered, serum is analyzed for lipids and evaluated against a control group."}, "[4]": {"test_system": "mouse", "experiment": "Acute toxicity, mouse", "type": "in vivo"}, "[5]": {"test_system": "serum lipids", "experiment": "Biochemical screening (unstressed rat)", "type": "in vivo", "conditions": "oral, serum after 4 h", "protocol": "(c) Biochemical screening\nIn accordance with the procedures set forth in Fletcher, M. J., Clin. Chim. […] Four hours later serum was analyzed for lipids and evaluated against a control group."}, "[6]": {"conditions": "background knowledge; cited from earlier work"}, "[7]": {"experiment": "Acute toxicity, rat", "type": "in vivo", "conditions": "in vivo"}, "[8]": {"experiment": "Acute toxicity, mouse", "type": "in vivo", "conditions": "in vivo"}, "[9]": {"conditions": "lowest effective dose, oral, prophylactic"}, "[10]": {"conditions": "oral, 24 h before triton, serum 48 h after triton"}, "[11]": {"conditions": "lowest dose with drop, therapeutic"}, "[12]": {"conditions": "oral, 1 h after triton, serum 48 h after triton"}, "[13]": {"conditions": "clofibrate, prophylactic, whole test, no single lipid named"}}, "note": "Like-named read-outs stand apart in the source and are kept apart here."}
{"compound": "n-oleylphosphatidylethanolamine [N-oleylcephalin]", "values": [{"measurement": "Free cholesterol Effect from", "setting": "[1]; [9]", "value": 0.10, "unit": "mg/kg BW"}, {"measurement": "Total cholesterol Effect from", "setting": "[1]; [9]", "value": 0.01, "unit": "mg/kg BW"}, {"measurement": "Phospholipids E.D.50", "setting": "[1]; [10]", "value": 0.62, "unit": "mg/kg BW"}, {"measurement": "Total lipids E.D.50", "setting": "[1]; [10]", "value": 0.29, "unit": "mg/kg BW"}, {"measurement": "Triglycerides E.D.50", "setting": "[1]; [10]", "value": 0.18, "unit": "mg/kg BW"}, {"measurement": "LD0 rat", "setting": "[2]", "value": "> 5000", "unit": "mg/kg BW"}, {"measurement": "LD50 rat", "setting": "[2]", "value": "> 5000", "unit": "mg/kg BW"}, {"measurement": "Free cholesterol Drop from", "setting": "[3]; [11]", "value": 0.10, "unit": "mg/kg BW"}, {"measurement": "Phospholipids Drop from", "setting": "[3]; [11]", "value": 0.10, "unit": "mg/kg BW"}, {"measurement": "Total cholesterol E.D.50", "setting": "[3]; [12]", "value": 278.86, "unit": "mg/kg BW"}, {"measurement": "Total lipids E.D.50", "setting": "[3]; [12]", "value": 8.49, "unit": "mg/kg BW"}, {"measurement": "LD0 mouse", "setting": "[4]", "value": "> 4640", "unit": "mg/kg BW"}, {"measurement": "LD50 mouse", "setting": "[4]", "value": "> 4640", "unit": "mg/kg BW"}, {"measurement": "Free cholesterol Drop from", "setting": "[5]", "value": 50, "unit": "mg/kg BW"}, {"measurement": "Phospholipids Drop from", "setting": "[5]", "value": 50, "unit": "mg/kg BW"}, {"measurement": "Total cholesterol Drop from", "setting": "[5]", "value": 50, "unit": "mg/kg BW"}, {"measurement": "Total lipids Drop from", "setting": "[5]", "value": 50, "unit": "mg/kg BW"}, {"measurement": "Triglycerides Drop from", "setting": "[5]", "value": 50, "unit": "mg/kg BW"}]}
{"compound": "CCCCC/C=C\\C/C=C\\CCCCCCCC(=O)NC1CCCCC1", "note": "[cyclohexyllinolamide]", "values": [{"measurement": "antiarteriosclerotic, antilipemic, metabolic or lipid-reducing effect in words", "setting": "[6]", "value": "lipid-reducing effect"}]}
{"compound": "CCOC(=O)C(C)(C)Oc1ccc(Cl)cc1", "note": "[Clofibrate, reference compound]", "values": [{"measurement": "Dosing ... very effective", "setting": "[1]; [13]", "value": 500, "unit": "mg/kg BW"}, {"measurement": "Dosings up to ... ineffective", "setting": "[1]; [13]", "value": "up to 250 mg/kg BW"}, {"measurement": "LD50", "setting": "[7]", "value": 1100, "unit": "mg/kg"}, {"measurement": "LD0 rat", "setting": "[2]", "value": "~ 681 mg/kg BW"}, {"measurement": "minimal effective dose", "setting": "[3]; lowest dose with drop, therapeutic, read-out: Phospholipids Drop from", "value": 500, "unit": "mg/kg"}, {"measurement": "minimal effective dose", "setting": "[3]; lowest dose with drop, therapeutic, read-out: Total lipids Drop from", "value": 250, "unit": "mg/kg"}, {"measurement": "minimal effective dose", "setting": "[3]; lowest dose with drop, therapeutic, read-out: Triglycerides Drop from", "value": 250, "unit": "mg/kg"}, {"measurement": "Free cholesterol No effect up to", "setting": "[3]; therapeutic", "value": "≤ 500", "unit": "mg/kg BW"}, {"measurement": "Total cholesterol No effect up to", "setting": "[3]; therapeutic", "value": "≤ 500", "unit": "mg/kg BW"}, {"measurement": "LD50", "setting": "[8]", "value": 2960, "unit": "mg/kg"}, {"measurement": "LD0 mouse", "setting": "[4]", "value": "~ 1470 mg/kg BW"}, {"measurement": "minimal effective dose", "setting": "[5]; read-out: Total cholesterol Drop from", "value": 50, "unit": "mg/kg"}, {"measurement": "minimal effective dose", "setting": "[5]; read-out: Total lipids Drop from", "value": 100, "unit": "mg/kg"}, {"measurement": "minimal effective dose", "setting": "[5]; read-out: Triglycerides Drop from", "value": 50, "unit": "mg/kg"}]}
